Patent publication US8956824B2, “Methods for identifying allosteric modulators of ship polypeptides” (British Columbia Cancer Agency Branch, priority 2006, dated 2015)
“Also recorded” adds a separate entry of the source.

Key:
[1] = test system: 100 protein kinase and phosphatase targets; test: In vitro kinase/phosphatase screen; format: biochemical; conditions: 2 μM final concentration; changes <25% not considered significant
Protocol: Protein kinase assays were performed at 30° C. for 15 min in a final volume of 25 μL. The assay was initiated by the addition of [32P]-ATP and the reaction mixture incubated at 30° C. for 15 minutes. After the 15 minute incubation period, the assay was terminated by spotting 20 μl of the reaction mixture onto phosphocellulose P81 plate. The phosphocellulose P81 plate was washed 3 times for approximately 15 minutes each in a 1% phosphoric acid solution. The radioactivity on the P81 plate was counted in the presence of scintillation fluid in a scintillation counter. Protein phosphatase activities were determined using pNPP as substrate. Assays were performed at 37° C. for 15 min in a […]. The assay was started by incubating the reaction mixture at 37° C. for 15 minutes. After the 15 minutes incubation period, the assay was terminated by the addition of 25 μl of 2N NaOH stopping solution. The absorbance of the reaction solution was measured in a spectrophotometer at 410 nm. The activity of the enzymes in the presence of AQX-MN100 was compared to that in the vehicle control and expressed as a % change in activity relative to that observed in the vehicle control. Changes in activity of <25% were not considered significant. _

[2] = test system: SHIP1+/+ and SHIP1−/− BMmφs; test: LPS-stimulated PKB phosphorylation in BMmφs (immunoblot); format: cell-based, mouse; conditions: 30 min pretreatment, 10 ng/mL LPS 15 min
Protocol: LPS stimulation of BMmφs. For the analysis of LPS-stimulated TNFα production, 2 ×10^5 cells were plated the night before in 24 well plates in BMmφp medium. The next day, the medium was changed and AQX-016A or carrier was added to cells at the indicated concentrations for 30 min prior to the addition of 10 ng/mL LPS. Supernatants were collected after 1 hr for TNFα determination by ELISA (BD Biosciences, Mississauga, ON, Canada). Data are expressed as the mean +/− SEM of triplicates and experiments were repeated 3 times. For analysis of intracellular signaling, 2×10^6 cells were plated the night before in 6 cm tissue culture plates. The next day, the cells were cultured in BMmφp medium without M-CSF for 1 hr at 37° C. and then pretreated with AQX-016A or carrier for 30 min prior to the addition of 10 ng/mL LPS for 15 min. Cells were washed with 4° C. PBS and resuspended in lysis buffer (50 mM Hepes, 2 mM EDTA, 1mM NaVO4 , 100 mM NaF, 50 mM NaPPi and 1%NP4O) supplemented with COMPLETE™ Protease Inhibitor Cocktail (Roche, Montreal, Canada). Lysates were rocked at 4° C. for 30 min and clarified by centrifuging 20 min at 12000×g. Lysates were then made 1× in Laemmli's buffer, boiled 2 min and loaded onto 7.5% SDS polyacrylamide cells. […]

J16 cells = test: Inositol phospholipid analysis in LPS-stimulated macrophages; format: cell-based, mouse
Protocol: Inositol phospholipid analysis. J16 cells, a macrophage cell line immortalized from C57B16 mice, were grown in 10% FCS in IMDM supplemented with 10 μM 2-mercaptoethanol, 150 μM monothioglycolate (MTG) and 1 mM glutamine. 5×10^6 cells were plated the night before in 10 cm tissue culture dishes. The next day, cells were washed three times with phosphate-free medium before being starved in phosphate free RPMI (MP Biomedicals, Irvine, Calif.) supplemented with 10% dialyzed FCS (Invitrogen, Burlington, Ont) and 1% RPMI for 2 hrs. Cells were then labeled with 1.0 mCi of ^32P-labeled orthophosphate (MP Biomedicals, Irvine, Calif.)/ml for 2 hrs at 37° C. Cells were pretreated for 30 mM with AQX-016A, LY294004 or vehicle prior to stimulation with LPS (50 ng/ml) for 15 min. Extraction of inositol phospholipids and HPLC analysis of deacylated lipids were performed as described previously (16). The amount of radioactivity contained in the elution peak for each lipid (two to five fractions) was summed to give the total counts for each lipid, and data were normalized to the first 60 fractions to adjust for fluctuations in total lipid labeling and recovery between samples. Data are expressed as the mean+/− the SEM of three independent replicates for each stimulation condition and the experiment was repeated twice.

[3] = test system: SHIP1+/+ and SHIP1−/− BMMCs; test: Intracellular signaling after FcεR1 crosslinking in BMMCs (immunoblot); format: cell-based, mouse; conditions: 10 μg/ml, 30 min; 20 ng/ml DNP-HSA 5 min
Protocol: Stimulation of BMMCs by FcεR1 crosslinking. SHIP1+/+ and SHIP1−/− BMMCs were pre-loaded overnight in BMMC medium lacking IL-3 with 0.1 μg/ml anti-DNP IgE (SPE-7, Sigma, Oakville, Ont). For calcium flux measurements, the cells were incubated with 2 μM fura 2-acetoxymethyl ester (Molecular Probes, Eugene, Oreg.) in Tyrode's buffer at 23° C. for 45 min. The cells were then washed and incubated in the presence of vehicle control, LY294002 or AQX-016A 30 min prior to stimulation with the indicated concentration of DNP-human serum albumin (DNP-HSA). Calcium influx was then monitored by spectrofluorometry as described previously (19). Experiments were repeated at least 3 times. For analysis of intracellular signaling, cells were pre-loaded with anti-DNP IgE as above, pre-treated with AQX-016A or buffer control for 30 min at 37° C. and stimulated with 20 ng/ml DNP-HSA for 5 min. Total cell lysates were then prepared and analyzed for phospho-PKB, phospho-p38MAPK, phospho-MAPK, Grb-2 (Cell Signalling, Mississauga, Ont) and SHIP1 (18) by immunoblot analysis as described previously (20). Results are representative of 3 independent experiments.

Structure (SMILES) | activity on a panel of 100 kinases and phosphatases [1] | LPS-stimulated PKB phosphorylation, SHIP1+/+ vs SHIP1−/− BMmφs [2] | PIP3 levels after LPS stimulation (J16 cells; 30 min pretreatment with 5 mg/mL AQX-016A or 25 μM LY294002, LPS 15 min) | PI-3,4-P2 levels after LPS stimulation (J16 cells; 30 min pretreatment with AQX-016A or 25 μM LY294002, LPS 15 min) | phosphorylation of PKB, p38MAPK and ERK, SHIP1+/+ vs SHIP1−/− BMMCs [3]
Cc1cc(O)cc2c1[C@]1(C)CC[C@H]3C(C)(C)CCC[C@]3(C)[C@H]1C2 [AQX-MN100] | very little activity; also recorded: selectively enhances SHIP enzyme activity |  |  |  | 
Cc1cc(O)c(O)c2c1[C@]1(C)CC[C@H]3C(C)(C)CCC[C@]3(C)[C@H]1C2 [AQX-016A] |  | preferentially inhibited, in a dose dependent manner, LPS-stimulated PKB phosphorylation in SHIP1+/+ but not in SHIP1−/− | abolished this increase | corresponding increase | inhibited the phosphorylation of PKB, p38MAPK and ERK in SHIP1+/+ but not in SHIP1−/−
